From patent publication US20240366598A1, “GLUCOSE-DEPENDENT INSULINOTROPIC POLYPEPTIDE RECEPTOR ANTAGONISTS AND USES THEREOF” (Pfizer Inc., priority 2023, published 2024)
Where a name gives a salt, the structure may show the parent alone.

Target: T1, human Glucose-dependent Insulinotropic Polypeptide Receptor (hGIPR) (Homo sapiens, UniProt P48546)
T1 sequence (P48546 22-466): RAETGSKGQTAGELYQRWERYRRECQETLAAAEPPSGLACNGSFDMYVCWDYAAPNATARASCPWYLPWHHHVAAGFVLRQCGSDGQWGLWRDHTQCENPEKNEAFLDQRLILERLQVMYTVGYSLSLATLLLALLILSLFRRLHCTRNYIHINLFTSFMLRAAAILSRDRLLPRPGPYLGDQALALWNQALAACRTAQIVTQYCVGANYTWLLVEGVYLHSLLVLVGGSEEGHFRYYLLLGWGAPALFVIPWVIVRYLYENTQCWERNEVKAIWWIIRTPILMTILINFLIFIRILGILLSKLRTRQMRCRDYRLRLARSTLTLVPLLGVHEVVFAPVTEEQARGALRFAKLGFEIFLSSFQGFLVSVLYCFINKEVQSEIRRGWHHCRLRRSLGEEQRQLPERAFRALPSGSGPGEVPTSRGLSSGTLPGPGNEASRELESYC
Assay: Functional in vitro GIPR antagonist potency assay (cAMP HTRF, CHO-K1 cells stably expressing hGIPR, hGIP stimulation at about EC80)
Format: cell-based
Details: geometric mean, hGIP at estimated EC80, examples marked ^2: overall geometric mean of multiple forms (including salts) tested
How it was run: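 CHO-K1 cells expressing hGIPR (2,000 per well) in HBSS/HEPES/0.1% BSA with 200 μM IBMX were preincubated 2 h at 37 °C with an 11-point compound series (0.5% DMSO). hGIP at about EC80 was then added for 30 min, and cAMP was read by HTRF (665/620 nm). Data were normalized between hGIP alone and full antagonism by a reference antagonist at 80 μM.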

Row | Compound | IC50 [µM]
1 | Cc1cc(NC(=O)N2CCC[C@@H]2C(=O)Nc2ccc(-c3cccc(C(=O)O)c3)cn2)ncc1C(F)(F)F [Example 202, 3-{6-[(1-{[4-methyl-5-(trifluoromethyl)pyridin-2-yl]carbamoyl}-D-prolyl)amino]pyridin-3-yl}benzoic acid] | 0.022
2 | Cc1cc(NC(=O)N2CCC[C@@H]2C(=O)Nc2ccc(-c3ccc(C(=O)O)cc3)cc2)ncc1C(F)(F)F [Example 203, 4′-[(1-{[4-methyl-5-(trifluoromethyl)pyridin-2-yl]carbamoyl}-D-prolyl)amino][1,1′-biphenyl]-4-carboxylic acid] | 0.0084
3 | O=C(O)c1ccc(-c2ccc(NC(=O)[C@H]3CCCN3C(=O)Nc3ccc(C(F)(F)F)cc3)cc2)cc1F [Example 204, 3-fluoro-4′-[(1-{[4-(trifluoromethyl)phenyl]carbamoyl}-D-prolyl)amino][1,1′-biphenyl]-4-carboxylic acid] | 0.014
4 | Cc1nc(C(=O)O)ccc1-c1ccc(NC(=O)[C@H]2CCCN2C(=O)NCc2ccc(C(C)C)cc2)cc1 [Example 205, 6-methyl-5-(4-{[1-({[4-(propan-2-yl)phenyl]methyl}carbamoyl)-D-prolyl]amino}phenyl)pyridine-2-carboxylic acid] | 0.014
5 | Cc1nc(C(=O)O)ccc1-c1ccc(NC(=O)[C@H]2CCCN2C(=O)NCc2ccc(C(F)(F)F)cc2)cc1 [Example 206, 6-methyl-5-(4-{[1-{{[4-(trifluoromethyl)phenyl]methyl}carbamoyl)-D-prolyl]amino}phenyl)pyridine-2-carboxylic acid] | 0.014
6 | Cc1cc(-c2ccc(NC(=O)[C@H]3CCCN3C(=O)Nc3ccc(C(F)(F)F)cc3)cc2)ccc1C(=O)O [Example 209, 3-methyl-4′-[(1-{[4-(trifluoromethyl)phenyl]carbamoyl}-D-prolyl)amino][1,1′-biphenyl]-4-carboxylic acid] | 0.0074
7 | O=C(O)c1ccc(-c2ccc(NC(=O)[C@H]3CCCN3C(=O)Nc3ccc(C4CCC4)cc3)nc2)cc1 [Example 210, 4-[6-({1-[(4-cyclobutylphenyl)carbamoyl]-D-prolyl}amino)pyridin-3-yl]benzoic acid] | 0.0093
8 | Cc1cc(NC(=O)N2CCC[C@@H]2C(=O)Nc2ccc(-c3ccc(C(=O)O)cc3)nc2)ncc1C(F)(F)F [Example 222, 4-{5-[(1-{[4-methyl-5-(trifluoromethyl)pyridin-2-yl]carbamoyl}-D-prolyl)amino]pyridin-2-yl}benzoic acid] | 0.1
9 | O=C(O)c1cccc(-c2ccc(NC(=O)[C@H]3CCCN3C(=O)NCc3ccc(C(F)(F)F)c(F)c3)nc2)c1 [Example 223, 3-(6-{[1-({[3-fluoro-4-(trifluoromethyl)phenyl]methyl}carbamoyl)-D-prolyl]amino}pyridin-3-yl)benzoic acid] | 0.051
10 | CC(C)c1ccc(CNC(=O)N2CCC[C@@H]2C(=O)Nc2ccc(-c3cccc(C(=O)O)c3)cn2)cc1 [Example 224, 3-(6-{[1-{{[4-(propan-2-yl)phenyl]methyl}carbamoyl)-D-prolyl]amino}pyridin-3-yl) benzoic acid] | 0.079
11 | O=C(O)c1cccc(-c2ccc(NC(=O)[C@H]3CCCN3C(=O)NCc3ccc(C(F)(F)F)cc3)nc2)c1 [Example 225, 3-(6-{[1-({[4-(trifluoromethyl)phenyl]methyl}carbamoyl)-D-prolyl]amino}pyridin-3-yl)benzoic acid] | 0.051

Results, then the molecule that gave them:

Row | IC50 [µM] | Compound
12 | 0.0099 | Cc1cc(-c2ccc(NC(=O)[C@H]3CCCN3C(=O)Nc3ccc(C(C)C)cc3)nc2)ccc1C(=O)O [Example 200, 2-methyl-4-{6-[(1-{[4-(propan-2-yl)phenyl]carbamoyl}-D-prolyl)amino]pyridin-3-yl}benzoic acid]
13 | 0.091 | Cc1cc(NC(=O)N2CCC[C@@H]2C(=O)Nc2ccc(-c3ccc(C(=O)O)nc3)cn2)ccc1C(C)C [Example 201, ammonium 6′-[(1-{[3-methyl-4-(propan-2-yl)phenyl]carbamoyl}-D-prolyl)amino][3,3′-bipyridine]-6-carboxylate]
14 | 0.0013 | CC(C)c1ccc(NC(=O)N2CCC[C@@H]2C(=O)Nc2ccc(-c3ccc(C(=O)O)cc3)cn2)cc1F [Example 207, 4-{6-[(1-{[3-fluoro-4-(propan-2-yl)phenyl]carbamoyl}-D-prolyl)amino]pyridin-3-yl}benzoic acid]
15 | 0.0049 | CC(C)c1ccc(NC(=O)N2CCC[C@@H]2C(=O)Nc2ccc(-c3ccc(C(=O)O)nc3)cc2)cc1F [Example 208, 5-{4-[(1-{[3-fluoro-4-(propan-2-yl)phenyl]carbamoyl}-D-prolyl)amino]phenyl}pyridine-2-carboxylic acid]
16 | 0.007 | O=C(O)c1ccc(-c2ccc(NC(=O)[C@H]3CCCN3C(=O)Nc3ccc(C4CCC4)cc3)cc2)cn1 [Example 211, 5-[4-({1-[(4-cyclobutylphenyl)carbamoyl]-D-prolyl}amino)phenyl]pyridine-2-carboxylic acid]
17 | 0.018 | Cc1ccc(CNC(=O)N2CCC[C@@H]2C(=O)Nc2ccc(-c3ccc(C(=O)O)nc3C)cc2)cc1F [Example 212, 5-{4-[(1-{[(3-fluoro-4-methylphenyl)methyl]carbamoyl}-D-prolyl)amino]phenyl}-6-methylpyridine-2-carboxylic acid]
18 | 0.09 | Cc1nc(C(=O)O)ccc1-c1ccc(NC(=O)[C@H]2CCCN2C(=O)Nc2cnc(C(C)C)c(F)c2)cc1 [Example 213, 5-{4-[(1-{[5-fluoro-6-(propan-2-yl)pyridin-3-yl]carbamoyl}-D-prolyl)amino]phenyl}-6-methylpyridine-2-carboxylic acid]
19 | 0.0067 | CC(C)c1ccc(NC(=O)N2CCC[C@@H]2C(=O)Nc2ccc(-c3ccc(C(=O)O)c(F)c3)cc2)cc1F [Example 214, 3-fluoro-4′-[(1-{[3-fluoro-4-(propan-2-yl)phenyl]carbamoyl}-D-prolyl)amino][1,1′-biphenyl]-4-carboxylic acid]
20 | 0.015 | O=C(O)c1ccc(-c2ccc(NC(=O)[C@H]3CCCN3C(=O)Nc3ccc(C(F)(F)F)c(F)c3)cn2)cc1 [Example 215, 4-{5-[(1-{[3-fluoro-4-(trifluoromethyl)phenyl]carbamoyl}-D-prolyl)amino]pyridin-2-yl}benzoic acid]
21 | 0.065 | Cc1cc(NC(=O)N2CCC[C@@H]2C(=O)Nc2ccc(-c3ccc(C(=O)O)nc3C)cc2)ncc1C(C)C [Example 216, 6-methyl-5-{4-[(1-{[4-methyl-5-(propan-2-yl)pyridin-2-yl]carbamoyl}-D-prolyl)amino]phenyl}pyridine-2-carboxylic acid, trifluoroacetate salt]
22 | 0.0029 | Cc1cc(NC(=O)[C@H]2CCCN2C(=O)Nc2ccc(C(C)C)c(F)c2)ccc1-c1ccc(C(=O)O)cc1 [Example 219, 4′-[(1-{[3-fluoro-4-(propan-2-yl)phenyl]carbamoyl}-D-prolyl)amino]-2′-methyl[1,1′-biphenyl]-4-carboxylic acid]
